Values quoted from earlier work, collected in article PMC10070485, “In silico study of HASDI (high-affinity selective DNA intercalator) as a new agent capable of highly selective recognition of the DNA sequence” (Scientific Reports, 2023).

Assays:
A-T base pairs = details: fluorescence titrations
DNA sequences [1] = test system: DNA sequences; set-up: method as in PMID 24446378; details: docking, MD, MM-PBSA, MESP
DNA sequences [2] = test system: DNA sequences; set-up: method as in PMID 31820194; details: MD, MM-PB(GB)SA, DFT
[3] = test system: DNA sequences of the d(ATGCAT)2 type; set-up: method as in PMID 34299405; details: diamine linker in the major groove

## neomycin-Hoechst 33258-pyrene conjugate
A-T base pairs
  number of A-T base pairs selectively recognized: up to 9

## Nc1cccc2oc(-c3ccccc3)cc(=O)c12 [AMF, 5-aminoflavone]
DNA sequences [1]
  DNA groove specificity: stable in the minor groove of AT-rich DNA and in the major groove of GC-rich DNA

## Cc1cc(-c2nc3cc(F)ccc3s2)ccc1N [5F]
DNA sequences [1]
  DNA groove specificity: affinity only to the minor groove

## COc1cccc2c1C(=O)c1c(O)c3c(c(O)c1C2=O)C[C@@](O)(C(C)=O)C[C@@H]3O[C@H]1C[C@H](N)[C@H](O)[C@H](C)O1 [daunomycin]
DNA sequences [2]
  DNA sequence specificity: highest affinity for TC/GA rich sequences

## Cc1cccc2nc3cccc(C(=O)NCCNCCNCCNC(=O)c4cccc5nc6cccc(C)c6nc45)c3nc12 [MLN944]
[3]
  DNA sequence type of greatest affinity: d(ATGCAT)2
